Measured values published in PMC3163098 (2011).

Columns and labels:
Type in all cases: binding
cytochrome P450 2B4 [1] = biological target: T1, cytochrome P450 2B4 (Oryctolagus cuniculus, UniProt P00178, H226Y); assay: UV-visible difference spectral titration
T1 sequence (P00178 28-491 H226Y): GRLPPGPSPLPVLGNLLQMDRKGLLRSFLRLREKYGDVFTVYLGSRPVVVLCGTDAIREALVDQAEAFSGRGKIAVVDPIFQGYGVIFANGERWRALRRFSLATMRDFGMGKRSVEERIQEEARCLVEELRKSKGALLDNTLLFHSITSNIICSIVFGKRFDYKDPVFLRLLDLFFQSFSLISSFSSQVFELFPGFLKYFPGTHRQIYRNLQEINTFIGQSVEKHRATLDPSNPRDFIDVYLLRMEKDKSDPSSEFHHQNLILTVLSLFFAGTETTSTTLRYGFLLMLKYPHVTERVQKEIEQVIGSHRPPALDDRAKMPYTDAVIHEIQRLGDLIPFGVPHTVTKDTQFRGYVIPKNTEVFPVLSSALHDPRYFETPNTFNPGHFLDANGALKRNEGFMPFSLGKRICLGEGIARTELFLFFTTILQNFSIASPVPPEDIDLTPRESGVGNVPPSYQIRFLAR

cytochrome P450 2B4 [2] = biological target: T1, cytochrome P450 2B4; assay: UV-visible difference spectral titration; remark: listed apart in the source
cytochrome P450 2B4 [3] = biological target: T1, cytochrome P450 2B4; assay: UV-visible difference spectral titration; remark: listed apart in the source
cytochrome P450 2B4 [4] = biological target: T1, cytochrome P450 2B4; assay: UV-visible competition with benzphetamine

For `CNc1c(C)n(C)n(-c2ccccc2)c1=O` [DMAP, desmethylamidopyrine], the Kd (cytochrome P450 2B4 [1]) was 3200 µM.
`Cc1c(N)c(=O)n(-c2ccccc2)n1C` [AAP, aminoantipyrine] gave a Kd (cytochrome P450 2B4 [2]) of 2600 µM.
For `C[C@@H](Cc1ccccc1)N(C)Cc1ccccc1` [BP, benzphetamine], the Kd (cytochrome P450 2B4 [3]) was 34 µM.
`Cc1c(N(C)C)c(=O)n(-c2ccccc2)n1C` [AP, amidopyrine] gave a Kd (cytochrome P450 2B4 [4]) of 2000 µM.
